Reference: article PMC7532339, “A cell-based large-scale screening of natural compounds for inhibitors of SARS-CoV-2” (Signal Transduction and Targeted Therapy, 2020)
Like-named read-outs stand apart in the source and are kept apart here.

Assays:
Vero-E6 cells = assay: Cytotoxicity assay (CCK-8); assay type: cell-based; conditions: Vero-E6 cells, 48 h, CCK-8
Procedure: (§1) Vero-E6 cells were seeded in 96-well plates (1 × 10^4 cells per well) and allowed to grow for 24 h before treatment. Then, serial 2-fold dilutions of compounds were added to the cells. At 48 h, the cells were incubated with 10 μL CCK-8 reagent (cell counting kit-8, Bimake) for 1 h at 37 °C. The absorbance at 450 nm was read by a Microplate Reader (Varioskan Flash, Thermo Fisher). Cell viability was expressed as a percentage of the treated cells to the control (untreated) cells. For each compound concentration, three wells were performed in parallel, and the mean values of the cell viability were calculated.

SARS-CoV-2 [1] = assay: Antiviral assay (viral RNA in supernatant by qRT-PCR); assay type: cell-based, SARS-CoV-2 (WIV-04)
[2] = Cytotoxicity assay (CCK-8); assay type: cell-based; conditions: African green monkey
Procedure: as §1

SARS-CoV-2 [3] = assay: CPE-based HTS assay (CPE reduction quantified by CCK-8 cell viability); conditions: for inhibition at 10 µM: Severe acute respiratory syndrome coronavirus 2, Vero C1008, 48 h, read-out: protection from CPE; for protection against SARS-CoV-2 infection: known inhibitors used as positive controls
SARS-CoV-2 [4] = assay: Addition of sodium and potassium assay; assay type: cell-based, SARS-CoV-2 (WIV-04)
[5] = Severe acute respiratory syndrome coronavirus 2, Vero C1008
[6] = Vero-E6 cells, 48 h, CCK-8, read-out: CC50
[7] = Severe acute respiratory syndrome coronavirus 2, Vero C1008, read-out: EC50
[8] = primary screening, compound 10 µM, Vero-E6 cells, MOI 0.01, 48 hpi

C=C1C(=O)O[C@@H]2C[C@@]3(C)CCC[C@H](C)C3=C[C@H]12 [Alantolactone]
CC50 (Vero-E6 cells): 36.7 µM | EC50 (SARS-CoV-2 [1]; read-out: EC50): 1.72 µM

COC(=O)[C@@]12OC[C@]34[C@H]([C@@H](O)[C@@H]1O)[C@@]1(C)CC(=O)C(O)=C(C)[C@@H]1C[C@H]3OC(=O)[C@H](OC(=O)CC(C)C)[C@@H]24 [Bruceine A]
CC50 at 48 h [2]: 31.4 µM | EC50 (SARS-CoV-2 [1]; [5]): 0.011 µM

C[C@]12CC[C@H](O)C[C@H]1CC[C@@H]1[C@@H]2CC[C@]2(C)[C@@H](c3ccc(=O)oc3)CC[C@]12O [Bufalin]
CC50 at 48 h [2, 6]: > 40 µM | EC50 (SARS-CoV-2 [1]; [7]): 0.018 µM | inhibition at 10 µM (SARS-CoV-2 [3]): > 50% | inhibitory effect on SARS-CoV-2 with added extracellular KCl (SARS-CoV-2 [4]): suppressed by KCl | inhibitory effect on SARS-CoV-2 with added extracellular NaCl (SARS-CoV-2 [4]): enhanced by NaCl

CC(=O)O[C@H]1C[C@]2(O)[C@@H]3CC[C@@H]4C[C@@H](O)CC[C@]4(C)[C@H]3CC[C@]2(C)[C@H]1c1ccc(=O)oc1 [Bufotaline]
CC50 (Vero-E6 cells): > 40 µM | EC50 (SARS-CoV-2 [1]; read-out: EC50): 0.0259 µM

CC(=O)O[C@H]1[C@H]2O[C@]23[C@@H]2CC[C@@H]4C[C@@H](O)CC[C@]4(C)[C@H]2CC[C@]3(C)[C@H]1c1ccc(=O)oc1 [Cinobufagin]
CC50 at 48 h [2, 6]: > 40 µM | EC50 (SARS-CoV-2 [1]; [7]): 0.018 µM

COc1cc(/C=C/C=O)ccc1O [Coniferylaldehyde]
CC50 at 48 h [2]: > 40 µM | EC50 (SARS-CoV-2 [1]; [5]): 11 µM

C=C[C@H]1[C@H](O[C@@H]2O[C@H](CO)[C@@H](O)[C@H](O)[C@H]2O)OC=C(C(=O)OC)[C@H]1CCOC(=O)c1cc(O)c(O)c(O)c1 [Cornuside]
CC50 (Vero-E6 cells): > 40 µM | EC50 (SARS-CoV-2 [1]; read-out: EC50): 5.26 µM

C[C@H]1COC2=C1C(=O)C(=O)c1c2ccc2c1CCCC2(C)C [Cryptotanshinone]
CC50 at 48 h [2, 6]: > 100 µM | EC50 (SARS-CoV-2 [1]; [7]): 5.02 µM | inhibition at 10 µM (SARS-CoV-2 [3]): > 50%

C=C1CC[C@H]2C(=C)CC[C@H]3C(=C)C(=O)O[C@@H]3[C@@H]12 [Dehydrocostus lactone]
CC50 at 48 h [2]: 36.2 µM | EC50 (SARS-CoV-2 [1]; [7]): 2.32 µM

C/C=C/c1cc(OC)c2c(c1)C(C)C(c1ccc(O)c(OC)c1)O2 (centres unmarked) [Dehydrodiisoeugenol]
CC50 (Vero-E6 cells): > 100 µM | EC50 (SARS-CoV-2 [1]; read-out: EC50): 10.3 µM

C[C@H]1O[C@@H](O[C@H]2[C@@H](O)C[C@H](O[C@H]3[C@@H](O)C[C@H](O[C@H]4CC[C@@]5(C)[C@H](CC[C@@H]6[C@@H]5C[C@@H](O)[C@]5(C)[C@@H](C7=CC(=O)OC7)CC[C@]65O)C4)O[C@@H]3C)O[C@@H]2C)C[C@H](O)[C@@H]1O [Digoxin, reference compound]
CC50 at 48 h [2, 6]: > 40 µM | EC50 (SARS-CoV-2 [1]; [7]): 0.154 µM | inhibition at 10 µM (SARS-CoV-2 [3]): > 50%

C=C1C(=O)O[C@@H]2C[C@@]3(C)CCCC(=C)[C@@H]3C[C@H]12 [Isoalantolactone]
CC50 at 48 h [2, 6]: > 40 µM | EC50 (SARS-CoV-2 [1]; [7]): 1.48 µM

COc1ccc(C[C@@H]2c3cc(Oc4cc(C[C@@H]5c6cc(O)c(OC)cc6CCN5C)ccc4O)c(OC)cc3CCN2C)cc1 [Isoliensinine]
CC50 at 48 h [2]: 40 µM | EC50 (SARS-CoV-2 [1]; [7]): 1.61 µM

COc1cc2c(cc1OC)[C@@H](Cc1ccc(O)c(Oc3cc4c(cc3OC)CCN(C)[C@@H]4Cc3ccc(O)cc3)c1)N(C)CC2 [Liensinine]
CC50 (Vero-E6 cells): 25.4 µM | EC50 (SARS-CoV-2 [1]; read-out: EC50): 2.54 µM

CC1(C)CC[C@]2(C(=O)O)CC[C@]3(C)C(=CC[C@@H]4[C@@]5(C)CC[C@H](O[C@@H]6O[C@H](C(=O)O)[C@@H](O)[C@H](O[C@@H]7OC[C@@H](O)[C@H](O)[C@H]7O)[C@H]6O)C(C)(C)[C@@H]5CC[C@]43C)[C@@H]2C1 [Momordinic]
CC50 (Vero-E6 cells): > 40 µM | EC50 (SARS-CoV-2 [1]; read-out: EC50): 3.53 µM

C=C1C(=O)[C@]23[C@H](O)[C@H]1CC[C@H]2[C@@]12CO[C@]3(O)[C@@H](O)[C@@H]1C(C)(C)CC[C@@H]2O [Oridonin]
CC50 at 48 h [2]: > 40 µM | EC50 (SARS-CoV-2 [1]; [7]): 1.46 µM

CO[C@H]1C[C@H](O[C@H]2CC[C@]3(C)[C@H]4CC[C@]5(C)[C@@H](C6=CC(=O)OC6)CC[C@]5(O)[C@@H]4CC[C@]3(O)C2)O[C@H](C)[C@H]1O[C@@H]1O[C@H](CO)[C@@H](O)[C@H](O)[C@H]1O [Periplocoside]
CC50 (Vero-E6 cells): > 40 µM | EC50 (SARS-CoV-2 [1]; read-out: EC50): 0.0657 µM

C=C(C)[C@@H]1CC[C@]2(C)[C@H](CC=C3[C@@H]4[C@@H](C)[C@H](C)CC[C@]4(C)CC[C@]32C)[C@@]1(C)CCC(=O)O [Roburicacid]
CC50 (Vero-E6 cells): > 40 µM | EC50 (SARS-CoV-2 [1]; read-out: EC50): 5.27 µM

COc1ccc(C(=O)O[C@H]2CC[C@@]3(C)[C@@H]4CC[C@H]5[C@]6(O)C[C@H](O)[C@@]7(O)[C@@H](CN8C[C@@H](C)CC[C@H]8[C@@]7(C)O)[C@]6(O)C[C@@]53O[C@]24O)cc1OC [Veratridine]
CC50 at 48 h [2, 6]: > 100 µM | EC50 (SARS-CoV-2 [1]; [7]): 2.38 µM

CC(C)=CCc1cc2c(cc1O)O[C@H](c1ccc(O)cc1)CC2=O [bavachin]
inhibition at 10 µM (SARS-CoV-2 [3]; [8]): > 50%

COc1ccc2cc1Oc1ccc(cc1)C[C@H]1c3c(cc4c(c3Oc3cc5c(cc3OC)CCN(C)[C@@H]5C2)OCO4)CCN1C [cepharanthine]
inhibition at 10 µM (SARS-CoV-2 [3]): > 50%

CCN(CC)CCCC(C)Nc1ccnc2cc(Cl)ccc12 (centres unmarked) [chloroquine, reference compound]
EC50 (SARS-CoV-2 [1]; Severe acute respiratory syndrome coronavirus 2, Vero C1008, 48 h, read-out: EC50 determined by viral RNA copies): 1.78 µM | EC50 (SARS-CoV-2 [3]; Severe acute respiratory syndrome coronavirus 2, Vero C1008, Vero-E6 cells, MOI 0.01, 48 hpi, CCK-8, read-out: EC50 (inhibition of CPE)): 2.65 µM | protection against SARS-CoV-2 infection (SARS-CoV-2 [3]; Vero-E6 cells, MOI 0.01, 48 h): provided protection

COc1ccc2cc1Oc1ccc(cc1)C[C@H]1c3cc(c(OC)cc3CCN1C)Oc1c(O)c(OC)cc3c1[C@H](C2)N(C)CC3 [fangchinoline]
inhibition at 10 µM (SARS-CoV-2 [3]): > 50%

CC(C)=CCc1c(O)ccc(C(=O)/C=C/c2ccc(O)cc2)c1O [isobavachalcone]
inhibition at 10 µM (SARS-CoV-2 [3]; [8]): > 50%

O[C@H]1[C@H]2c3cc4c(cc3CN3CCC(=C[C@@H]1O)[C@H]23)OCO4 [lycorine]
inhibition at 10 µM (SARS-CoV-2 [3]): > 50%

CC(C)=CCc1cc2c(cc1O)oc(=O)c1c3ccc(O)cc3oc21 [psoralidin]
protection from CPE (SARS-CoV-2 [3]): > 50%

CCC(CC)COC(=O)[C@H](C)N[P@](=O)(OC[C@H]1O[C@@](C#N)(c2ccc3c(N)ncnn23)[C@H](O)[C@@H]1O)Oc1ccccc1 [remdesivir, reference compound]
protection against SARS-CoV-2 infection (SARS-CoV-2 [3]; Vero-E6 cells, MOI 0.01, 48 h): provided protection

COC(=O)[C@H]1[C@H]2C[C@@H]3c4[nH]c5cc(OC)ccc5c4CCN3C[C@H]2C[C@@H](OC(=O)c2cc(OC)c(OC)c(OC)c2)[C@@H]1OC [reserpine, reference compound]
inhibition at 10 µM (SARS-CoV-2 [3]; [8]): > 50%

Cc1coc2c1C(=O)C(=O)c1c-2ccc2c1CCCC2(C)C [tanshinone IIA]
inhibition at 10 µM (SARS-CoV-2 [3]; [8]): > 50%

COc1ccc2cc1Oc1ccc(cc1)C[C@H]1c3cc(c(OC)cc3CCN1C)Oc1c(OC)c(OC)cc3c1[C@H](C2)N(C)CC3 [tetrandrine]
inhibition at 10 µM (SARS-CoV-2 [3]; [8]): > 50%

Brusatol
EC50 (SARS-CoV-2 [1]; read-out: EC50): 0.0492 µM

CB6: neutralizing human antibody CB6
protection against SARS-CoV-2 infection (SARS-CoV-2 [3]; […]): provided protection

IFN-α
protection against SARS-CoV-2 infection (SARS-CoV-2 [3]; […]): provided protection
